Laboratory results taken from patent publication US8350048B2, “Amide compounds as boosters of antivirals” (Janssen R&D Ireland, priority 2007, dated 2013).
Read-outs that look alike come from different tables or passages of the source.

Key:
[1] = test system: wild-type HIV-1IIIB strain; test: Antiviral activity, MT4 LTR-EGFP cellular assay; type: cell-based; parameters: key to Antiviral activity IIIB (pEC50): pEC50 = -log10(EC50); details: for EC50: read-out: Antiviral activity IIIB (pEC50) (converted)
Protocol: (§1) Assay 1 &2: Antiviral Activity/Toxicity
The compounds of the present invention were tested for antiviral activity in a cellular assay, which was performed according to the following procedure.
The human T-cell line MT4 is engineered with Green Fluorescent Protein (GFP) and an HIV-specific promoter, HIV-1 long terminal repeat (LTR). This cell line is designated MT4 LTR-EGFP, and can be used for the in vitro evaluation of anti-HIV activity of investigational compounds. In HIV-1 infected cells, the Tat protein is produced which upregulates the LTR promotor and finally leads to stimulation of the GFP reporter production, allowing measuring ongoing HIV-infection fluorometrically.
(§2) The ratio of CC50 to EC50 is defined as the selectivity index (SI) and is an indication of the selectivity of the anti-HIV activity of the inhibitor. The ultimate monitoring of HIV-1 infection and cytotoxicity is done using a scanning microscope. Image analysis allows very sensitive detection of viral infection. Measurements are done before cell necrosis, which usually takes place about five days after infection, in particular measurements are performed three days after infection.
(§3) A pEC50 value corresponds to −log10(EC50). A pCC50 value corresponds to −log10(CC50).

[2] = Toxicity, mock-infected MT4 CMV-EGFP cells; type: cell-based, human; details: human
Source text: as §1
(§4) Analogously, MT4 cells are engineered with GFP and the constitutional cytomegalovirus (CMV) promotor. […] Cytotoxic investigational compounds reduce GFP levels of mock-infected MT4 CMV-EGFP cells.
as §2, §3

[3] = Metabolic stability of test compounds (HLM15'); type: in vitro ADME, human; details: for recovery at 15 min, 5 μM: read-out: Metabolic stability (HLM, % recovery after 15')
Source text: Human liver tissue is rinsed in ice-cold 0.1 M Tris-HCl (pH 7.4) buffer to wash excess blood. Tissue is then blotted dry, weighed and chopped coarsely using surgical scissors. The tissue pieces are homogenized in 3 volumes of ice-cold 0.1 M phosphate buffer (pH 7.4) using either a Potter-S (Braun, Italy) equipped with a Teflon pestle or a Sorvall Omni-Mix homogenizer, for 7×10 sec. In both cases, the vessel is kept in/on ice during the homogenization process. Tissue homogenates are centrifuged at 9000×g for 20 min at 4° C. using a Sorvall centrifuge or Beckman Ultracentrifuge. The resulting supernatant can be stored at −80° C. and is designated ‘S9’. The S9 fraction is centrifuged at 100,000×g for 60 min at 4° C. using a Beckman ultracentrifuge. The resulting supernatant is carefully aspirated, aliquoted and designated ‘cytosol’. The pellet is re-suspended in 0.1 M phosphate buffer (pH 7.4) in a final volume of 1 ml per 0.5 g original tissue weight and designated ‘microsomes’. All sub-cellular fractions are aliquoted, immediately frozen in liquid nitrogen and stored at −80° C. until use.
Heat-inactivated (10 min at 95° C.) ‘S9’ or microsomes were used for blank experiments. […] The reaction was incubated for 0 or 15 min. Next, the reaction was stopped by addition of 2 volumes of DMSO (or acetonitrile). Samples were centrifuged (10 min, 900×g) and analyzed by LC-MS.

CYP2D6 = CYP2D6 (Homo sapiens, UniProt P10635); test: in vitro; details: pH 7.4
Protocol: (§5) Inhibition of the metabolism of test compounds by different CYP P450 isoenzymes was determined using E. coli expressed proteins (3A4, 2C9, 2D6, 1A2, and 2C19) that convert their specific substrates into a fluorescent molecule (Table 6). This fluorescent molecule was measured using a fluorescent plate reader (Victor2 (Wallac) or Fluoroskan (Labsystems)). […] CYP P450 enzymes were prepared in house or commercially bought and stored at −80° C.
(§6) The assay was performed in black 96 well Costar plates. Test compounds were added to a CYP P450 enzyme solution in the presence of an NADPH generating system. After 5 min of preincubation at 37° C., the freshly prepared, phosphate buffered (pH 7.4) substrate solution was added. Known CYP P450 inhibitors were used as positive controls, negative controls were run without CYP P450 enzyme. […] Reaction mixtures were incubated at 37° C. for 30 min (CYP3A4-BFC), 30 min (CYP3A4-BQ), 10 min (CYP3A4-DBF), 15 min (CYP1A2-CEC), 30 min (CYP2C9-MFC, CYP2C19-CEC), or 45 min (CYP2D6-AMMC), respectively. Then, the reaction was stopped by the addition of 200 μl acetonitrile, and the fluorescent signal was detected.
(§7) Calculation of CYP P450 isoenzyme inhibition (% inh.):
(§8) % activity=(100/(average positive control−average negative control))×(average sample−average negative control)

CYP2C19 = CYP2C19 (Homo sapiens, UniProt P33261); test: in vitro; details: E. coli expressed CYP2C19, pH 7.4, probe CEC 25 μM
Protocol: as §5, §6, §7, §8

MT4 CMV-EGFP cells = test: Toxicity, mock-infected MT4 CMV-EGFP cells; type: cell-based, human
Source text: as §1, §4, §2, §3

CYP2C9 = CYP2C9 (Homo sapiens, UniProt P11712); test: in vitro
Source text: Assay 4: CYP450 Inhibition

[4] = Human immunodeficiency virus 1, 72 h, wild-type HIV-1 IIIB, MT4 LTR-EGFP cells, three days after infection
[5] = mock-infected MT4 CMV-EGFP cells, read-out: Toxicity MT4 (pCC50) (converted)
[6] = pH 7.4, human liver microsomes 1 mg/ml, 5 μM test compound, 15 min
[7] = wild-type HIV-1 IIIB, MT4 LTR-EGFP cells, three days after infection
[8] = human liver microsomes 1 mg/ml, 5 μM test compound, 15 min
[9] = Human immunodeficiency virus 1, IIIB, 72 h

CYP2C9, sequence (P11712 whole entry): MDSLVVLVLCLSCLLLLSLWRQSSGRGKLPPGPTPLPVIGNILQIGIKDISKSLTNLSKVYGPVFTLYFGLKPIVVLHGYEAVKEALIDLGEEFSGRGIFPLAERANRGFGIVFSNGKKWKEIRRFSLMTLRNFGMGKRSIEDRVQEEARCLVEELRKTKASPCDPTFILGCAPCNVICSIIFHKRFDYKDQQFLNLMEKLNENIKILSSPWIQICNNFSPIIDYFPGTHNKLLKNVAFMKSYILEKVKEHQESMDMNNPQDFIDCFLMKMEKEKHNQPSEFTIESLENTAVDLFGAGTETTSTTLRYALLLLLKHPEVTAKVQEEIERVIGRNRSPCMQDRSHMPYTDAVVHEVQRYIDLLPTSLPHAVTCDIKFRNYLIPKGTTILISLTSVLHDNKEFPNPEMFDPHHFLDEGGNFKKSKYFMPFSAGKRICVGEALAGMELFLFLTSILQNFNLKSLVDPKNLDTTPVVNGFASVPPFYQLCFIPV
CYP2D6, sequence (P10635 whole entry): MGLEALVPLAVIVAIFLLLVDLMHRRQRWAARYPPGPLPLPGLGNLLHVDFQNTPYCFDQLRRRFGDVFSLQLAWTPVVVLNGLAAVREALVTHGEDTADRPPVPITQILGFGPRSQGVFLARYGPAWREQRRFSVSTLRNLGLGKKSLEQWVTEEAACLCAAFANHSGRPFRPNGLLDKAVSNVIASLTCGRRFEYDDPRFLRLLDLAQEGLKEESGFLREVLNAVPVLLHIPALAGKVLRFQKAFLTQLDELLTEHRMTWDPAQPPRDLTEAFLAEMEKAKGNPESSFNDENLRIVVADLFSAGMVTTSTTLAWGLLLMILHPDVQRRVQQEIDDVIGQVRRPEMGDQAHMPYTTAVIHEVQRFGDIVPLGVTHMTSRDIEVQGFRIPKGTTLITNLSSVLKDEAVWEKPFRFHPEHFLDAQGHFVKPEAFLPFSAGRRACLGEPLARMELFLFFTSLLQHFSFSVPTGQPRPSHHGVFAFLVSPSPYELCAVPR
CYP2C19, sequence (P33261 whole entry): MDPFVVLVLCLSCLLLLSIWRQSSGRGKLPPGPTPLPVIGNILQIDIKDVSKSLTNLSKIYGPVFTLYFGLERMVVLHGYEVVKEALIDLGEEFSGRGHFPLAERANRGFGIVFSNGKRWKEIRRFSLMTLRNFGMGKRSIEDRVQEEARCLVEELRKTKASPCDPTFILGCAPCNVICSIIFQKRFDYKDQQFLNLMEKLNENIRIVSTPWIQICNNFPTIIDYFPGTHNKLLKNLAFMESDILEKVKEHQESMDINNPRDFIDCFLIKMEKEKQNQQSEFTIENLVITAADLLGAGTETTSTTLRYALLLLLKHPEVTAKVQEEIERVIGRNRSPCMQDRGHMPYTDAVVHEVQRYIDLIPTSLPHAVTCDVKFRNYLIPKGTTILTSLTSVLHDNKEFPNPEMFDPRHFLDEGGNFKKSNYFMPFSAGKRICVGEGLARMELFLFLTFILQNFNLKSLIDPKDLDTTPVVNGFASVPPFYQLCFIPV

| Antiviral activity IIIB (pEC50) [1, 7] | Metabolic stability (HLM, % recovery after 15') [3, 8] | Cyp450 inhibition: CDNA-CYP2C9-MFC (% inhibition) (CYP2C9) | Structure (SMILES) | Toxicity MT4 (pCC50) (MT4 CMV-EGFP cells) | also measured |
| --- | --- | --- | --- | --- | --- |
|  |  |  | CC(C)CN(C[C@H](O)[C@H](Cc1ccccc1)NC(=O)OCc1cncs1)C(=O)c1ccc2nc(N3CCCC3)oc2c1 [Compound C51, Thiazol-5-ylmethyl (2S,3S)-3-hydroxy-4-(N-isobutyl-2-(pyrrolidin-1-yl)-benzo[d]oxazole-6-carboxamido)-1-phenylbutan-2-ylcarbamate] |  | EC50 [1, 4]: 44.7 µM; CC50 at 3 days [2, 5]: 40.7 µM; recovery at 15 min, 5 μM [3, 6]: 66%; inhibition at 45 min, 10 μM (CYP2D6): 82%; inhibition at 30 min, 10 μM (CYP2C19): 94% |
| <4.00 | 69% | 34% | CCN(C)c1nc2ccc(C(=O)N(CCN3CCCC3)C[C@@H](O)[C@H](Cc3ccccc3)NC(=O)OCc3cncs3)cc2o1 [Compound C12] | <4.00 |  |
| <4.00 | 57% | 29% | CCN(C)c1nc2ccc(C(=O)N(CCN(C)C)C[C@@H](O)[C@H](Cc3ccccc3)NC(=O)OCc3cncs3)cc2o1 [Compound C11] | <4.00 |  |
|  |  |  | CCN(C)c1nc2ccc(C(=O)N(CC(C)C)C[C@H](O)[C@H](Cc3ccccc3)NC(=O)OCc3cncs3)cc2o1 [Compound C52, Thiazol-5-ylmethyl (2S,3S)-4-(2-(ethyl(methyl)amino)-N-isobutylbenzo[d]-oxazole-6-carboxamido)-3-hydroxy-1-phenylbutan-2-ylcarbamate] |  | EC50 [1, 4]: 44.7 µM; CC50 [2]: 44.7 µM; recovery at 15 min, 5 μM [3, 6]: 63% |
|  |  |  | CC(C)CN(C[C@@H](O)[C@H](Cc1ccccc1)NC(=O)OCc1cncs1)C(=O)c1ccc2nc(N(C)CCN(C)C)oc2c1 [Compound C24] | <4.00 | Antiviral activity IIIB (pEC50) [1]: =4.20; Metabolic stability (HLM, % recovery after 15') [3]: 57% |
| =4.32 | 65% | 91% | CCN(C)c1nc2ccc(C(=O)N(CC(C)C)C[C@@H](O)[C@H](Cc3ccccc3)NC(=O)OCc3cccnc3)cc2o1 [Compound C9] | =4.24 |  |
|  |  |  | CC(C)CN(C[C@@H](O)[C@H](Cc1ccccc1)NC(=O)OCc1cncs1)C(=O)c1ccc2nc(C(C)C)oc2c1 [Compound C45, Thiazol-5-ylmethyl (2S,3R)-3-hydroxy-4-(N-isobutyl-2-isopropylbenzo[d]-oxazole-6-carboxamido)-1-phenylbutan-2-ylcarbamate] |  | EC50 [1, 4]: 44.7 µM; CC50 at 3 days [2, 5]: 42.7 µM; recovery at 15 min, 5 μM [3, 6]: 68%; inhibition at 45 min, 10 μM (CYP2D6): 44%; inhibition at 30 min, 10 μM (CYP2C19): 89% |
| <4.00 | 64% | 53% | CCN(C)c1nc2ccc(C(=O)N(CCN3CCOCC3)C[C@@H](O)[C@H](Cc3ccccc3)NC(=O)OCc3cncs3)cc2o1 [Compound C18] | <4.00 |  |
|  |  |  | CC(C)CN(C[C@@H](O)[C@H](Cc1ccccc1)NC(=O)OCc1cncs1)C(=O)c1ccc2nc(N)oc2c1 [Compound C22] | <4.00 | Antiviral activity IIIB (pEC50) [1]: <4.00; Metabolic stability (HLM, % recovery after 15') [3]: 72% |
| =4.22 | 59% | 28% | CC(C)CN(C[C@@H](O)[C@H](Cc1ccccc1)NC(=O)OCc1cncs1)C(=O)c1ccc2nc(NCCCN(C)C)oc2c1 [Compound C23] | <4.00 |  |
|  |  |  | CCN(C)c1nc2ccc(C(=O)N(CC(C)C)C[C@@H](O)[C@H](Cc3ccccc3)NC(=O)OCc3cncs3)cc2o1 [Compound C1, Thiazol-5-ylmethyl (2S,3R)-4-(2-(ethyl(methyl)amino)-N-isobutylbenzo[d]-oxazole-6-carboxamido)-3-hydroxy-1-phenylbutan-2-ylcarbamate] |  | EC50 [1, 4]: 70.8 µM; CC50 at 3 days [2]: > 81.3 µM; recovery at 15 min, 5 μM [3, 6]: 71% |
| =4.06 | 92% | 90% | CC(C)CN(C[C@@H](O)[C@H](Cc1ccccc1)NC(=O)OCc1cncs1)C(=O)c1ccc2nc(NCCCn3ccnc3)oc2c1 [Compound C46] | <4.00 |  |
| <4.00 | 60% | 93% | CC(C)CN(C[C@@H](O)[C@H](Cc1ccccc1)NC(=O)OCc1cncs1)C(=O)c1ccc2ncn(C(C)C)c2c1 [Compound C14] | <4.00 |  |
|  |  |  | CC(C)CN(C[C@@H](O)[C@H](Cc1cccnc1)NC(=O)OCc1cncs1)C(=O)c1ccc2ncsc2c1 [Compound C55, Thiazol-5-ylmethyl (2S,3R)-3-hydroxy-4-(N-isobutylbenzo[d]thiazole-6-carboxamido)-1-(pyridin-3-yl)butan-2-ylcarbamate] |  | EC50 [1, 4]: > 100 µM; CC50 at 3 days [2, 5]: > 100 µM |
|  |  |  | CCN(C)c1nc2ccc(C(=O)N(CC(C)C)C[C@@H](O)[C@H](Cc3cccnc3)NC(=O)OCc3cncs3)cc2o1 [Compound C54, Thiazol-5-ylmethyl (2S,3R)-4-(2-(ethyl(methyl)amino)-N-isobutylbenzo[d]-oxazole-6-carboxamido)-3-hydroxy-1-(pyridin-3-yl)butan-2-ylcarbamate] |  | EC50 [1, 4]: > 100 µM; CC50 at 3 days [2, 5]: > 100 µM |
|  |  |  | CCN(C[C@@H](O)[C@H](Cc1ccccc1)NC(=O)OCc1cncs1)C(=O)c1ccc2nc(N3CCCC3)oc2c1 [Compound C30, Thiazol-5-ylmethyl (2S,3R)-4-(N-ethyl-2-(pyrrolidin-1-yl)benzo[d]oxazole-6-carboxamido)-3-hydroxy-1-phenylbutan-2-ylcarbamate] |  | EC50 [1, 9]: 69.2 µM; CC50 [2]: 72.4 µM; recovery ([3]; human, pH 7.4): 80% |
| =4.32 | 67% | 97% | CCN(C)c1nc2ccc(C(=O)N(C[C@@H](O)[C@H](Cc3ccccc3)NC(=O)OCc3cncs3)CC(C)(C)C)cc2o1 [Compound C43] | =4.34 |  |
|  |  |  | O=C(N[C@@H](Cc1ccccc1)[C@H](O)CN(CC1CCCCC1)C(=O)c1ccc2nc(N3CCCC3)oc2c1)OCc1cncs1 [Compound C31, Thiazol-5-ylmethyl (2S,3R)-4-(N-(cyclohexylmethyl)-2-(pyrrolidin-1-yl)-benzo[d]oxazole-6-carboxamido)-3-hydroxy-1-phenylbutan-2-ylcarbamate] |  | EC50 [1, 9]: 27.5 µM; CC50 at 3 days [2, 5]: 21.9 µM; recovery at 15 min, 5 μM [3, 6]: 59%; inhibition at 45 min, 10 μM (CYP2D6): 78%; inhibition at 30 min, 10 μM (CYP2C19): 104% |
| =4.79 | 62% | 84% | CCN(C)c1nc2ccc(C(=O)N(CC(C)C)C[C@@H](O)[C@H](Cc3ccccc3)NC(=O)OCc3ccc4c(c3)OCO4)cc2o1 [Compound C36] | =4.57 |  |

| Structure (SMILES) | Antiviral activity IIIB (pEC50) [1, 7] | Metabolic stability (HLM, % recovery after 15') [3, 8] | Cyp450 inhibition: CDNA-CYP2C9-MFC (% inhibition) (CYP2C9) | Toxicity MT4 (pCC50) (MT4 CMV-EGFP cells) | also measured |
| --- | --- | --- | --- | --- | --- |
| CC(C)CN(C[C@@H](O)[C@H](Cc1ccccc1)NC(=O)OCc1cncs1)C(=O)c1ccc2nc(N3CCOCC3)oc2c1 [Compound C5] | <4.00 | 67% | 95% | =4.06 |  |
| C#CCN(C)c1nc2ccc(C(=O)N(CC(C)C)C[C@@H](O)[C@H](Cc3ccccc3)NC(=O)OCc3cncs3)cc2o1 [Compound C50] | =4.32 | 72% |  |  | Toxicity MT4 (pCC50) (MT4 CMV-EGFP cells; mock-infected MT4 CMV-EGFP cells): =4.32 |
